Source: US12448377B2, “Heterocyclic compound” (Takeda Pharmaceutical Company Limited, priority 2019, dated 2025)

What was measured:
[1] = molecular target: T1, human orexin type 2 receptor (Homo sapiens, UniProt O43614); assay: Measurement of orexin type 2 receptor agonist activity (calcium fluorescence, CHO cells forcibly expressing human OX2 receptor); type: cell-based; settings: compound at 3 μM, DMSO = 0%, orexin A (human) 10 nM = 100%
T1 construct: expressed in transfected cells
T1 sequence (O43614 1-444): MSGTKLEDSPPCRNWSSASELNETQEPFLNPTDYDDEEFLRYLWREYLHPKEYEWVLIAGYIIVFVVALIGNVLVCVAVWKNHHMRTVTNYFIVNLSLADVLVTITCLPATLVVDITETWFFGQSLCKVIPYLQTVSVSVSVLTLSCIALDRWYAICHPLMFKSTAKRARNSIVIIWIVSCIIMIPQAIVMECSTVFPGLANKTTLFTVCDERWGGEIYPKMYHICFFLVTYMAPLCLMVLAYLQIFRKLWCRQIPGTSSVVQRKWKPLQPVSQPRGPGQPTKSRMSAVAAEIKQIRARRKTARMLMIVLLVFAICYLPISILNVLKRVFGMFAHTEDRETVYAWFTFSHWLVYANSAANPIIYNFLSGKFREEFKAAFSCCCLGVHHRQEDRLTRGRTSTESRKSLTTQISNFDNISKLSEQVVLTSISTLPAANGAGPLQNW
Method in brief: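 Agonism measured as Fluo-4 calcium fluorescence in CHO-K1 cells stably expressing human OX2 receptor, loaded 30 min at 37° C then 30 min at room temperature with probenecid. Signal recorded about 2 min 40 sec after compound; activity (%) normalised to DMSO (0%) and 10 nM human orexin A (100%).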

SD rats = assay: Evaluation of wake-promoting effects in SD rats (EEG/EMG); type: in vivo, rat; settings: s.c., 10 mg/kg, at ZT5, 3 hr after administration
Experimental: The wake-promoting effects were evaluated by measuring the electroencephalogram (EEG) and electromyogram (EMG) in SD rats (Crl:CD(SD), CHARLES RIVER LABORATORIES JAPAN, Kanagawa, Japan.) using chronic experiment telemetry automatic measurement system (PhysioTel® and PONEMAH™, Data Sciences International Inc., Minnesota, U.S.A.). Under pentobarbital sodium anesthesia (50 mg/kg, intraperitoneal, Somnopentyl®, Kyoritsu Seiyaku, Tokyo, Japan), […] male SD rats were surgically implanted with a transmitter. Bilateral EEG leads were positioned at the parietal area in contact with the dura and fixed to the cranium with dental cement. Bilateral EMG leads were fixed to the back cervical muscles. The transmitter was implanted under the skin of the back, and the head skin was sutured. After recovery for at least 1 week, the cortical EEG and EMG signals in SD rats were recorded using a high-end data acquisition and real-time analysis system (PONEMAH™). The signals were automatically scored in 4 sec epochs by a sleep scoring system (SleepSign®, Kissei Comtec Co., Ltd.). Test compound (1 or 10 mg/kg, Table 3) dissolved in a mixed solution containing 10% DMSO, 10% Cremophor EL, 20% PEG400 and 60% H2O, or vehicle (i.e., a mixed solution containing 10% DMSO, 10% Cremophor EL, 20% PEG400 and 60% H2O) was administered subcutaneously (s.c.) to the SD rats at zeitgeber time (ZT) 5 (when the start time of the light cycle was ZT0) in a volume of 5 mL/kg. The EEG and EMG recordings were performed for 3 hr after the compound administration. The time spent in wakefulness for 3 hr after administration (% of vehicle treatment) was calculated by using SleepSign.

OX2R agonist activity (3 μM, %) [1]: 104%
Structure (SMILES): CC#CC1CCC(OCC2C(NS(C)(=O)=O)CCc3ccc(C)c(=O)n32)CC1 [Example 146, rel-N-[(3S,4R)-7-methyl-6-oxo-4-({[(1s,4S)-4-(prop-1-yn-1-yl)cyclohexyl]oxy}methyl)-1,3,4,6-tetrahydro-2H-quinolizin-3-yl]methanesulfonamide]
Wakefulness time (% of vehicle treatment) (Mean, n = 2) (SD rats): 166.75 % of vehicle treatment
